Assays:
NAMPT [1] = molecular target: T1, NAMPT (Homo sapiens, UniProt P43490); assay: Time-Resolved Fluorescence Resonance Energy Transfer (TR-FRET) Binding Assay of NAMPT; conditions: 6.8 nM NAMPT, 200 nM probe, equilibrated 3 hours, no substrates
Summary of the method: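 Compound was mixed with enzyme, probe and antibody and equilibrated 3 h at room temperature. TR-FRET read at Ex 337 nm, Em 520/495 nm. Ratios were normalized to controls and fitted to a four-parameter logistic equation for IC50.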

PC3 cells = assay: NAMPT Cell Proliferation Assay (Cell Titer Glo); type: cell-based; conditions: Homo sapiens, PC-3, 120 h, incubated 5 days, cell viability
Summary of the method: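 PC3 cells (500/well, RPMI with 10% heat-inactivated FBS) were exposed to 10-fold compound dilutions from […] for 5 days at 37 °C, 5% CO2. Viability was read with Cell Titer Glo; IC50 from sigmoidal fit of percent inhibition.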

NAMPT [2] = molecular target: T1, NAMPT; assay: TR-FRET Binding Assay of NAMPT with PRPP; conditions: 2 nM NAMPT, 2 nM probe, 200 µM PRPP and 2.5 mM ATP, equilibrated 16 hours
Summary of the method: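 TR-FRET probe displacement with 2 nM NAMPT, 2 nM probe and 1 nM Tb-anti-His antibody in the presence of 200 µM PRPP and 2.5 mM ATP, 2% DMSO (all final). Equilibrated 16 hours before reading to permit possible enzymatic modification of compounds.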

T1 sequence (P43490 whole entry): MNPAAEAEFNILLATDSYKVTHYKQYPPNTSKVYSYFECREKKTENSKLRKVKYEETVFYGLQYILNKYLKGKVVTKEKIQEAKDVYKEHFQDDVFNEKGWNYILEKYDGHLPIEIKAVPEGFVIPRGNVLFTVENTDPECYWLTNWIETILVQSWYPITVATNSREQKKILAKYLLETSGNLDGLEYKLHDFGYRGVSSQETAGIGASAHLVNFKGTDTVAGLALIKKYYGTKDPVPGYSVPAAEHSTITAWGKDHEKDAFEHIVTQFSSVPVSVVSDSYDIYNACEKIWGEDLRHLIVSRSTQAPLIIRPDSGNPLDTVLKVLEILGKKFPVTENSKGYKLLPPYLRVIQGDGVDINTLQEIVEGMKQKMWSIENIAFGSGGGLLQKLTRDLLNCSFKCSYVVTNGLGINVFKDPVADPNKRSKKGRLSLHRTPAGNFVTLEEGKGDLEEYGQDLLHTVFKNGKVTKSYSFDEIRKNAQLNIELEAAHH

O=C(Nc1ccc(C2CN(C(=O)c3ccco3)C2)cc1)N1CC(c2cccnc2)C1 [Example 224, N-{4-[1-(furan-2-ylcarbonyl)azetidin-3-yl]phenyl}-3-(pyridin-3-yl)azetidine-1-carboxamide]
IC50 (NAMPT [1]): 0.026 µM | IC50 (PC3 cells): 0.0207 µM | IC50 (NAMPT [2]): 0.000333 µM

O=C(Nc1ccc(C2CCN(CC3CCCC3)CC2)cc1)N1CC(c2cccnc2)C1 [Example 231, N-{4-[1-(cyclopentylmethyl)piperidin-4-yl]phenyl}-3-(pyridin-3-yl)azetidine-1-carboxamide]
IC50 (NAMPT [1]): 0.421 µM | IC50 (PC3 cells): 0.361 µM | IC50 (NAMPT [2]): 0.000225 µM

O=C(Nc1ccc(C2CN(CC3CCCO3)C2)cc1)N1CC(c2cccnc2)C1 (stereo not drawn) [Example 250, 3-(pyridin-3-yl)-N-{4-[1-(tetrahydrofuran-2-ylmethyl)azetidin-3-yl]phenyl}azetidine-1-carboxamide]
IC50 (NAMPT [1]): 0.865 µM | IC50 (PC3 cells): 0.664 µM | IC50 (NAMPT [2]): 0.000679 µM

CCCCC(=O)N1CCC(c2ccc(NC(=O)N3CC(c4cccnc4)C3)cc2)C1 (stereo not drawn) [Example 258, N-[4-(1-pentanoylpyrrolidin-3-yl)phenyl]-3-(pyridin-3-yl)azetidine-1-carboxamide]
IC50 (NAMPT [1]): 0.0524 µM | IC50 (PC3 cells): 0.0683 µM | IC50 (NAMPT [2]): 0.000359 µM

CC(C)C(=O)N1CC(c2ccc(NC(=O)N3CC(c4cccnc4)C3)cc2)C1 [Example 101, N-{4-[1-(2-methylpropanoyl)azetidin-3-yl]phenyl}-3-(pyridin-3-yl)azetidine-1-carboxamide]
IC50 (NAMPT [1]): 0.143 µM | IC50 (PC3 cells): 0.0681 µM | IC50 (NAMPT [2]): 0.000629 µM

O=C(Nc1ccc(OC2CN(C(=O)[C@@H]3CCCO3)C2)cc1)N1CC(c2cccnc2)C1 [Example 29, 3-(pyridin-3-yl)-N-[4-({1-[(2S)-tetrahydrofuran-2-ylcarbonyl]azetidin-3-yl}oxy)phenyl]azetidine-1-carboxamide]
IC50 (NAMPT [1]): 0.0534 µM | IC50 (PC3 cells): 0.0661 µM | IC50 (NAMPT [2]): 0.000243 µM

Cn1cccc1C(=O)N1CC[C@@H](Oc2ccc(NC(=O)N3CC(c4cccnc4)C3)cc2)C1 [Example 325, N-[4-({(3R)-1-[(1-methyl-1H-pyrrol-2-yl)carbonyl]pyrrolidin-3-yl}oxy)phenyl]-3-(pyridin-3-yl)azetidine-1-carboxamide]
IC50 (NAMPT [1]): 0.0188 µM | IC50 (PC3 cells): 0.0113 µM | IC50 (NAMPT [2]): 0.000362 µM

O=C(Nc1ccc(OC2CN(C(=O)c3ccno3)C2)cc1)N1CC(c2cccnc2)C1 [Example 148, N-(4-{[1-(1,2-oxazol-5-ylcarbonyl)azetidin-3-yl]oxy}phenyl)-3-(pyridin-3-yl)azetidine-1-carboxamide]
IC50 (NAMPT [1]): 0.0277 µM | IC50 (PC3 cells): 0.0167 µM | IC50 (NAMPT [2]): 0.000321 µM

O=C(CC1CCCCC1)N1CC(Oc2ccc(NC(=O)N3CC(c4cccnc4)C3)cc2)C1 [Example 138, N-(4-{[1-(cyclohexylacetyl)azetidin-3-yl]oxy}phenyl)-3-(pyridin-3-yl)azetidine-1-carboxamide]
IC50 (NAMPT [1]): 0.0114 µM | IC50 (PC3 cells): 0.00838 µM | IC50 (NAMPT [2]): 0.000596 µM

O=C(Nc1ccc(C2CCN(C(=O)c3ccccc3)CC2)cc1)N1CC(c2cccnc2)C1 [Example 57, N-[4-(1-benzoylpiperidin-4-yl)phenyl]-3-(pyridin-3-yl)azetidine-1-carboxamide]
IC50 (NAMPT [1]): 0.00685 µM | IC50 (PC3 cells): 0.00358 µM | IC50 (NAMPT [2]): 0.000222 µM

CCOCC(=O)N1CCC(c2ccc(NC(=O)N3CC(c4cccnc4)C3)cc2)CC1 [Example 173, N-{4-[1-(ethoxyacetyl)piperidin-4-yl]phenyl}-3-(pyridin-3-yl)azetidine-1-carboxamide]
IC50 (NAMPT [1]): 0.0904 µM | IC50 (PC3 cells): 0.0564 µM | IC50 (NAMPT [2]): 0.000393 µM

CC(=O)N[C@@H](CC(C)C)C(=O)N1CCC(c2ccc(NC(=O)N3CC(c4cccnc4)C3)cc2)CC1 [Example 175, N-{4-[1-(N-acetyl-L-leucyl)piperidin-4-yl]phenyl}-3-(pyridin-3-yl)azetidine-1-carboxamide]
IC50 (NAMPT [1]): 0.0307 µM | IC50 (PC3 cells): 0.0675 µM | IC50 (NAMPT [2]): 0.000403 µM

O=C(CC1CCCCC1)N1CCC(c2ccc(NC(=O)N3CC(c4cccnc4)C3)cc2)C1 (stereo not drawn) [Example 278, N-{4-[1-(cyclohexylacetyl)pyrrolidin-3-yl]phenyl}-3-(pyridin-3-yl)azetidine-1-carboxamide]
IC50 (NAMPT [1]): 0.0197 µM | IC50 (PC3 cells): 0.0306 µM | IC50 (NAMPT [2]): 0.000213 µM

CCC(=O)N1CCC(c2ccc(NC(=O)N3CC(c4cccnc4)C3)cc2)CC1 [Example 192, N-[4-(1-propanoylpiperidin-4-yl)phenyl]-3-(pyridin-3-yl)azetidine-1-carboxamide]
IC50 (NAMPT [1]): 0.023 µM | IC50 (PC3 cells): 0.0632 µM | IC50 (NAMPT [2]): 0.000255 µM

O=C(Nc1ccc(OC2CN(C(=O)C3CCCCC3)C2)cc1)N1CC(c2cccnc2)C1 [Example 139, N-(4-{[1-(cyclohexylcarbonyl)azetidin-3-yl]oxy}phenyl)-3-(pyridin-3-yl)azetidine-1-carboxamide]
IC50 (NAMPT [1]): 0.0144 µM | IC50 (PC3 cells): 0.00781 µM | IC50 (NAMPT [2]): 0.000442 µM

O=C(CC(F)(F)F)N1CCC(Oc2ccc(NC(=O)N3CC(c4cccnc4)C3)cc2)CC1 [Example 6, 3-(pyridin-3-yl)-N-(4-{[1-(3,3,3-trifluoropropanoyl)piperidin-4-yl]oxy}phenyl)azetidine-1-carboxamide]
IC50 (NAMPT [1]): 0.0534 µM | IC50 (PC3 cells): 0.0306 µM | IC50 (NAMPT [2]): 0.000224 µM

COCCOCC(=O)N1CC[C@@H](Oc2ccc(NC(=O)N3CC(c4cccnc4)C3)cc2)C1 [Example 320, N-[4-({(3R)-1-[(2-methoxyethoxy)acetyl]pyrrolidin-3-yl}oxy)phenyl]-3-(pyridin-3-yl)azetidine-1-carboxamide]
IC50 (NAMPT [1]): 0.208 µM | IC50 (PC3 cells): 0.155 µM | IC50 (NAMPT [2]): 0.000407 µM

CCC(C)CC(=O)N1CCC(c2ccc(NC(=O)N3CC(c4cccnc4)C3)cc2)CC1 (stereo not drawn) [Example 167, N-{4-[1-(3-methylpentanoyl)piperidin-4-yl]phenyl}-3-(pyridin-3-yl)azetidine-1-carboxamide]
IC50 (NAMPT [1]): 0.00841 µM | IC50 (PC3 cells): 0.0235 µM | IC50 (NAMPT [2]): 0.000319 µM

CC(C)(C)C(=O)N1CCC(c2ccc(NC(=O)N3CC(c4cccnc4)C3)cc2)CC1 [Example 171, N-{4-[1-(2,2-dimethylpropanoyl)piperidin-4-yl]phenyl}-3-(pyridin-3-yl)azetidine-1-carboxamide]
IC50 (NAMPT [1]): 0.00874 µM | IC50 (PC3 cells): 0.022 µM | IC50 (NAMPT [2]): 0.000231 µM

CC[C@H](C)C(=O)N1CC(c2ccc(NC(=O)N3CC(c4cccnc4)C3)cc2)C1 [Example 110, N-(4-{1-[(2S)-2-methylbutanoyl]azetidin-3-yl}phenyl)-3-(pyridin-3-yl)azetidine-1-carboxamide]
IC50 (NAMPT [1]): 0.0353 µM | IC50 (PC3 cells): 0.0118 µM | IC50 (NAMPT [2]): 0.000421 µM

O=C(CC1CC1)N1CC=C(c2ccc(NC(=O)N3CC(c4cccnc4)C3)cc2)CC1 [Example 26, N-{4-[1-(cyclopropylacetyl)-1,2,3,6-tetrahydropyridin-4-yl]phenyl}-3-(pyridin-3-yl)azetidine-1-carboxamide]
IC50 (NAMPT [1]): 0.0736 µM | IC50 (PC3 cells): 0.172 µM | IC50 (NAMPT [2]): 0.000724 µM

CCCC(=O)N1CC[C@H](Oc2ccc(NC(=O)N3CC(c4cccnc4)C3)cc2)C1 [Example 99, N-(4-{[(3S)-1-butanoylpyrrolidin-3-yl]oxy}phenyl)-3-(pyridin-3-yl)azetidine-1-carboxamide]
IC50 (NAMPT [1]): 0.223 µM | IC50 (PC3 cells): 0.0493 µM | IC50 (NAMPT [2]): 0.000414 µM

CC(C)C(C)C(=O)N1CCC(c2ccc(NC(=O)N3CC(c4cccnc4)C3)cc2)CC1 (stereo not drawn) [Example 197, N-{4-[1-(2,3-dimethylbutanoyl)piperidin-4-yl]phenyl}-3-(pyridin-3-yl)azetidine-1-carboxamide]
IC50 (NAMPT [1]): 0.0178 µM | IC50 (PC3 cells): 0.0227 µM | IC50 (NAMPT [2]): 0.000505 µM

COCC(=O)N1CC=C(c2ccc(NC(=O)N3CC(c4cccnc4)C3)cc2)CC1 [Example 20, N-{4-[1-(methoxyacetyl)-1,2,3,6-tetrahydropyridin-4-yl]phenyl}-3-(pyridin-3-yl)azetidine-1-carboxamide]
IC50 (NAMPT [1]): 0.0684 µM | IC50 (PC3 cells): 0.123 µM | IC50 (NAMPT [2]): 0.0005 µM

O=C(CC1CCCCC1)N1CC[C@@H](Oc2ccc(NC(=O)N3CC(c4cccnc4)C3)cc2)C1 [Example 317, N-(4-{[(3R)-1-(cyclohexylacetyl)pyrrolidin-3-yl]oxy}phenyl)-3-(pyridin-3-yl)azetidine-1-carboxamide]
IC50 (NAMPT [1]): 0.0299 µM | IC50 (PC3 cells): 0.0554 µM | IC50 (NAMPT [2]): 0.000207 µM

O=C(Nc1ccc(C2CCN(C(=O)c3nccs3)CC2)cc1)N1CC(c2cccnc2)C1 [Example 195, 3-(pyridin-3-yl)-N-{4-[1-(1,3-thiazol-2-ylcarbonyl)piperidin-4-yl]phenyl}azetidine-1-carboxamide]
IC50 (NAMPT [1]): 0.00419 µM | IC50 (PC3 cells): 0.00866 µM | IC50 (NAMPT [2]): 0.000281 µM

O=C(Nc1ccc(C2CCN(C(=O)C3CCCCC3)CC2)cc1)N1CC(c2cccnc2)C1 [Example 177, N-{4-[1-(cyclohexylcarbonyl)piperidin-4-yl]phenyl}-3-(pyridin-3-yl)azetidine-1-carboxamide]
IC50 (NAMPT [1]): 0.0158 µM | IC50 (PC3 cells): 0.074 µM | IC50 (NAMPT [2]): 0.000304 µM

O=C1CC[C@H](C(=O)N2CC[C@@H](Oc3ccc(NC(=O)N4CC(c5cccnc5)C4)cc3)C2)N1 [Example 305, N-(4-{[(3R)-1-(5-oxo-D-prolyl)pyrrolidin-3-yl]oxy}phenyl)-3-(pyridin-3-yl)azetidine-1-carboxamide]
IC50 (NAMPT [1]): 0.435 µM | IC50 (PC3 cells): 1.82 µM | IC50 (NAMPT [2]): 0.000211 µM

CC(C)(C)C(=O)N1CCC(c2ccc(NC(=O)N3CC(c4cccnc4)C3)cc2)C1 (stereo not drawn) [Example 282, N-{4-[1-(2,2-dimethylpropanoyl)pyrrolidin-3-yl]phenyl}-3-(pyridin-3-yl)azetidine-1-carboxamide]
IC50 (NAMPT [1]): 0.0266 µM | IC50 (PC3 cells): 0.0143 µM | IC50 (NAMPT [2]): 0.000219 µM

Source: patent US9296723B2, “NAMPT inhibitors” (AbbVie Inc., priority 2012, dated 2016)
